Values of other authors as cited in patent publication US20040147613A1, “Use of neuroactive substances for the treatment of parkinsons disease and pharmaceutical combination” (priority 2001, published 2004).

Experiments:
[1] = system: local synapse populations / central projections
[2] = system: GABAergic axosomatic synapses in the medial prefrontal cortex; conditions: 4-month chronic treatment, rat
central DA-receptors = conditions: foetal administrations

## CNCCCN1c2ccccc2CCc2ccccc21 [desipramine]
[1]; chronic treatment
  axonal sprouting of central projections: induces axonal sprouting of central noradrenergic and probably also dopaminergic cortical projections

## O=C(CCCN1CCC(O)(c2ccc(Cl)cc2)CC1)c1ccc(F)cc1 [haloperidol]
[1]; 14-day chronic treatment
  sprouting of glutamatergic corticostriatal projections: indications of transsynaptic sprouting of glutamatergic corticostriatal projections
[2]
  number of GABAergic axosomatic synapses in the medial prefrontal cortex: dramatic rise in the number of GABAergic axosomatic synapses

## β-endorphin
Central DA-receptors
  effect on central DA-receptors: expression of the plastic capacities, typical of adult rats, of central DA-receptors ceases
